{"source": "paper PMC6309939", "about": "(Pain, 2019)", "target": "human α4β3δ GABAA receptor (β3 subunit) (Homo sapiens, UniProt P28472)", "sequence (P28472 26-473)": "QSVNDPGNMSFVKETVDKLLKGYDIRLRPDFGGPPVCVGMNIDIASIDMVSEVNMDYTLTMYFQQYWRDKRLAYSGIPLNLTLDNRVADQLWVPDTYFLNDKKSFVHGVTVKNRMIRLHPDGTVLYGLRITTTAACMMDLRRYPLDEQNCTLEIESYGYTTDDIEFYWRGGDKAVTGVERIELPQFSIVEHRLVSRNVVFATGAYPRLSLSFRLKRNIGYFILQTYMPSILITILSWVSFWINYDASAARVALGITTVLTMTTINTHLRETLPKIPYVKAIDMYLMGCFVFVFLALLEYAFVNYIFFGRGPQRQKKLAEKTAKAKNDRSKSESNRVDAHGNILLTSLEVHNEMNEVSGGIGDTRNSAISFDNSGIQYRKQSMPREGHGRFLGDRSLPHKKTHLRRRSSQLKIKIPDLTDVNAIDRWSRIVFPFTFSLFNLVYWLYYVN", "sequence (P48169 36-554 partner)": "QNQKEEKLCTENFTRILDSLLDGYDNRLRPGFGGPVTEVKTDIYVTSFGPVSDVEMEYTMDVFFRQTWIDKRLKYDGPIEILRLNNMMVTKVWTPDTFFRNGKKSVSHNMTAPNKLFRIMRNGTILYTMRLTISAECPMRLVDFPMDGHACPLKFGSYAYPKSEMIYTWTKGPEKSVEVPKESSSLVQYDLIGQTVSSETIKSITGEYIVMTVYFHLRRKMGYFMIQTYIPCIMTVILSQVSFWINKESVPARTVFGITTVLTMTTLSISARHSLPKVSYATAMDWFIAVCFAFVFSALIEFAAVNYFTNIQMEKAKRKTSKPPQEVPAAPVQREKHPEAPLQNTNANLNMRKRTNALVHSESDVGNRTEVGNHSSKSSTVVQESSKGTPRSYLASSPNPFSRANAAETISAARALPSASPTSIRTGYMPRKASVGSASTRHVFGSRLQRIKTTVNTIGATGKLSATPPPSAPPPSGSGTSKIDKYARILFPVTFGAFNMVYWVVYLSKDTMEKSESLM", "sequence (O14764 25-452 partner)": "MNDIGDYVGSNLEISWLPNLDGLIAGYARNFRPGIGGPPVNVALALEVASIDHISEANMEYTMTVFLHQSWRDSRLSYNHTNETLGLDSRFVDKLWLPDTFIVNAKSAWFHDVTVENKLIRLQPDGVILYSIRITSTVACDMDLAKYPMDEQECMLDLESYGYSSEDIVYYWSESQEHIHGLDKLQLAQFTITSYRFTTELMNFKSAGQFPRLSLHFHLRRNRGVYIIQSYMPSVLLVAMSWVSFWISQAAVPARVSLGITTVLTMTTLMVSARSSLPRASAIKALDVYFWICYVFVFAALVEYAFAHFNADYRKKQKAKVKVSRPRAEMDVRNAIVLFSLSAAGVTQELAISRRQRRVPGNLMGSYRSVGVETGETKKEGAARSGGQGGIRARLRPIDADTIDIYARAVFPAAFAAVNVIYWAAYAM", "assay": "two-electrode voltage clamp in oocytes, potentiation of GABA EC10 currents", "assay_type": "cell-based", "data": [{"smiles": "CC(=O)[C@H]1CC[C@H]2[C@@H]3CC[C@H]4C[C@H](O)CC[C@]4(C)[C@H]3CC[C@]12C", "note": "[ALLO, allopregnanolone]", "values": [{"measurement": "EC50", "result": 520, "unit": "nM"}]}]}
